SMILES strings stand for the structures.

This assay addresses T1, PotF (Escherichia coli, UniProt P31133, A182D/S87Y).
T1 sequence (P31133 27-370 S87Y/A182D): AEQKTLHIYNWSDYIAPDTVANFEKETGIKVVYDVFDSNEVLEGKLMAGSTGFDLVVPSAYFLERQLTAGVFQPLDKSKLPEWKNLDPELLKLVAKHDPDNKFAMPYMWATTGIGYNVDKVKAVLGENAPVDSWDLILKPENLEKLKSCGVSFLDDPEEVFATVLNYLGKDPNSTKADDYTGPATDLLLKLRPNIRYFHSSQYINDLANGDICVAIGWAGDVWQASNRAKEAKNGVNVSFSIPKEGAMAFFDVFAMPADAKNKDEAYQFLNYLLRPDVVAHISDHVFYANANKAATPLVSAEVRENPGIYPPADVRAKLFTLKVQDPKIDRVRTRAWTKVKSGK
Nature of the assay: isothermal titration calorimetry; crystal structure of the complex solved here. In kind it is binding. A general note: ITC needs no label: the signal is the heat of the interaction.

Usually Kd stands for the concentration at which binding is half-saturated. High values mean weaker binding, low ones tighter binding. Take `N=C(N)NCCCCN` [agmatine]: the Kd is 0.3 µM.

For the origin of these results see article doi:10.1101/2024.07.27.605435v1, “A fluorescent biosensor for the visualization of agmatine” (biorxiv, 2024).
